Measured values reported in the NIST ThermoML archive (doi:10.1016/j.jct.2017.06.008).

Legend:
[1] = xn = mol fraction of the nth substance listed; conditions: 100 kPa, Liquid; for speed of sound: Frequency=3 MHz, Single path-length method; for mass density: Vibrating tube method
[2] = refractive index (Na D-line) (dimensionless); xn = mol fraction of the nth substance listed; conditions: 100 kPa, Liquid, Standard Abbe refractometry

CC(=O)CC(C)C [4-methylpentan-2-one] + CC(C)=O
Conditions | mass density, 293.15 K [kg/m3] | mass density, 303.15 K [kg/m3] | mass density, 313.15 K [kg/m3] | refractive index, 293.15 K | refractive index, 303.15 K | refractive index, 313.15 K | speed of sound, 293.15 K [m/s] | speed of sound, 303.15 K [m/s] | speed of sound, 313.15 K [m/s]
[1], x1 = 0.1004 | 791 | 780 | 769 | – | – | – | 1185.7 | 1140.9 | 1096.8
[1], x1 = 0.1992 | 793 | 782 | 771 | – | – | – | 1186.8 | 1143 | 1099.4
[1], x1 = 0.3012 | 794 | 783 | 773 | – | – | – | 1189.2 | 1145.9 | 1102.9
[1], x1 = 0.396 | 795 | 785 | 774 | – | – | – | 1191.8 | 1149 | 1106.4
[1], x1 = 0.5005 | 796 | 786 | 776 | – | – | – | 1194.8 | 1152.4 | 1110.4
[1], x1 = 0.6912 | 798 | 788 | 779 | – | – | – | 1201.1 | 1159.5 | 1118.3
[1], x1 = 0.7996 | 799 | 790 | 780 | – | – | – | 1205.2 | 1163.6 | 1122.9
[1], x1 = 0.8992 | 799 | 791 | 781 | – | – | – | 1208 | 1167.2 | 1126.9
[1], x1 = 1 | 800 | 792 | 782 | – | – | – | 1212.3 | 1171.4 | 1131.4
[2], x1 = 0.1004 | – | – | – | 1.365 | 1.359 | 1.354 | – | – | –
[2], x1 = 0.1992 | – | – | – | 1.37 | 1.364 | 1.359 | – | – | –
[2], x1 = 0.3012 | – | – | – | 1.374 | 1.369 | 1.365 | – | – | –
[2], x1 = 0.396 | – | – | – | 1.378 | 1.373 | 1.368 | – | – | –
[2], x1 = 0.5005 | – | – | – | 1.382 | 1.377 | 1.372 | – | – | –
[2], x1 = 0.6912 | – | – | – | 1.388 | 1.383 | 1.379 | – | – | –
[2], x1 = 0.7996 | – | – | – | 1.391 | 1.386 | 1.382 | – | – | –
[2], x1 = 0.8992 | – | – | – | 1.394 | 1.389 | 1.384 | – | – | –
[2], x1 = 1 | – | – | – | 1.396 | 1.391 | 1.387 | – | – | –

CC(=O)CC(C)C [4-methylpentan-2-one] + C[S+](C)[O-]
Conditions | mass density, 293.15 K [kg/m3] | mass density, 303.15 K [kg/m3] | mass density, 313.15 K [kg/m3] | refractive index, 293.15 K | refractive index, 303.15 K | refractive index, 313.15 K | speed of sound, 293.15 K [m/s] | speed of sound, 303.15 K [m/s] | speed of sound, 313.15 K [m/s]
[1], x1 = 0.1002 | 1052 | 1043 | 1033 | – | – | – | 1453.8 | 1418.9 | 1384.7
[1], x1 = 0.2004 | 1010 | 1001 | 991 | – | – | – | 1409.2 | 1373.8 | 1339.2
[1], x1 = 0.3004 | 973 | 964 | 954 | – | – | – | 1371.9 | 1336 | 1300.8
[1], x1 = 0.4007 | 940 | 931 | 921 | – | – | – | 1338.7 | 1302.9 | 1267.1
[1], x1 = 0.4982 | 912 | 902 | 893 | – | – | – | 1311.8 | 1275.3 | 1238.9
[1], x1 = 0.5999 | 885 | 875 | 866 | – | – | – | 1287.1 | 1249.8 | 1212.7
[1], x1 = 0.6992 | 861 | 851 | 842 | – | – | – | 1266.1 | 1227.9 | 1190
[1], x1 = 0.7995 | 839 | 830 | 820 | – | – | – | 1246.5 | 1207.5 | 1168.9
[1], x1 = 0.8981 | 819 | 810 | 801 | – | – | – | 1229.3 | 1189.2 | 1149.9
[1], x1 = 1 | 801 | 792 | 782 | – | – | – | 1212.3 | 1171.4 | 1131.4
[2], x1 = 0.1002 | – | – | – | 1.466 | 1.462 | 1.458 | – | – | –
[2], x1 = 0.2004 | – | – | – | 1.455 | 1.451 | 1.446 | – | – | –
[2], x1 = 0.3004 | – | – | – | 1.445 | 1.441 | 1.436 | – | – | –
[2], x1 = 0.4007 | – | – | – | 1.436 | 1.432 | 1.427 | – | – | –
[2], x1 = 0.4982 | – | – | – | 1.428 | 1.423 | 1.419 | – | – | –
[2], x1 = 0.5999 | – | – | – | 1.42 | 1.416 | 1.411 | – | – | –
[2], x1 = 0.6992 | – | – | – | 1.413 | 1.409 | 1.404 | – | – | –
[2], x1 = 0.7995 | – | – | – | 1.407 | 1.402 | 1.398 | – | – | –
[2], x1 = 0.8981 | – | – | – | 1.401 | 1.397 | 1.392 | – | – | –
[2], x1 = 1 | – | – | – | 1.396 | 1.391 | 1.387 | – | – | –
